# Measured values as given in patent US20110166112A1, “METHOD FOR STIMULATING PLATELET PRODUCTION” (Eisai, Inc., priority 2009, published 2011).
# Test system: subjects with chronic ITP who completed 28 days of study treatment
# Assay: Phase 2 6-month rollover study of E5501: effectiveness (durable, transient, overall platelet response, maintenance, steroid use, upward dose titration)
# Type: in vivo, human
# Settings: for Decreased use of concomitant steroid medication by ≧50%, No / Decreased use of concomitant steroid medication by ≧50%, Yes / Permanently discontinued steroid use, No / Permanently discontinued steroid use, Yes: 6-month rollover, FAS subjects taking steroids at baseline; for subjects who required upward dose titration / durable response rate: 6-month treatment period; for Transient Platelet Response No, %: 'no' includes durable responders
# Method: This study was a multicenter, parallel-group, rollover study of E5501 in subjects with chronic ITP who were enrolled in and completed 28 days' of study treatment. All subjects who completed the previous study and otherwise met the eligibility criteria for this rollover protocol were enrolled.
# Subjects who rolled over from the previous study were treated for an additional 6 months after completing previous study.
# Initial dose: Subjects who met the efficacy response in the previous study continued to receive their previous blinded dose at entry into this study.
# Dose titration was performed in an open label fashion in 10 mg increments as follows: • Nonresponders, who received initial doses of open-label E5501 10 mg in the previous study, could have their dose increased in 10 mg increments every 14 days to a maximum of 40 mg/day in the absence of platelet response.
# Subjects were also permitted to reduce their dose of ITP-directed concomitant therapy (e.g., steroids). The overall goal of any dose modification was to maintain the subject's peripheral platelet count above 50,000/mm^3 and to decrease the need for ITP-directed concomitant medications (if applicable). During any dose modification of study drug or ITP-directed concomitant medications, platelet counts were collected every week. After platelet counts stabilized, platelet count collection reverted to a biweekly schedule.
# Assessments: Study subjects were evaluated for safety and efficacy (including platelet count) on day 1 and then biweekly while receiving treatment.
# Two primary analysis populations were used to summarize safety and effectiveness: • Safety population: all subjects who received at least 1 dose of study drug and had at least 1 post-treatment safety assessment in either the previous or this study. All safety analyses were performed using this population. • Full Analysis Set (FAS): all subjects who participated in both studies and who had at least one post-treatment effectiveness assessment in this study. All efficacy analyses were performed using this population.
# Secondary Endpoints: The secondary endpoints were markers of effectiveness, including: • 1. Changes in platelet count from baselines of the previous study and of this study by study visit; and • 2. Durable platelet response, defined as subjects who had at least 3 platelet count assessments in the last 14 weeks of the 24-week treatment period, and whose platelet count was at a response level for at least 75% of the time in the last 14 weeks during the 24-week treatment period, with no rescue medication used during the 24-week treatment period. Platelet response level was defined as ≧50,000/mm^3 for subjects whose baseline platelet count was <30,000/mm^3 in the previous study or an increase in baseline platelet count of ≧20,000/mm^3 for subjects receiving steroids whose baseline platelet count in the previous study was ≧30,000/mm^3 but <50,000/mm^3; • 3. Transient platelet response, defined as achievement of a response level for any 4 consecutive weeks during the 24-week treatment period without durable platelet response in the absence of any rescue medication; • 4. Overall platelet response (durable platelet response plus transient platelet response); • 5. Maintenance of platelet response, defined as subjects who were responders in the previous study (e.g., responders on day 28 of the previous study) who achieved a durable response in this study and had no upward dose titration of E5501 during this study; • 6. Permanent discontinuation of steroid use, defined as subjects who used steroid medication within the 2-week period before their first dose of study drug in this study, and for whom concomitant steroid medication was discontinued at least 8 weeks before the end of the treatment period; • 7. Reduction of steroid use by at least 50%. […]
# [1] = FAS, 501-CL-003 Nonresponders (N = 28)
# [2] = FAS, 501-CL-003 Responders (N = 25)
# [3] = FAS, <3 Lines of Prior Therapy, E5501 Total, N assessed 18
# [4] = FAS, <3 Lines of Prior Therapy, Non-Responders, N assessed 6
# [5] = FAS, <3 Lines of Prior Therapy, Responders, N assessed 12
# [6] = FAS, Baseline PC >15K/mm^3, E5501 Total, N assessed 38
# [7] = FAS, Baseline PC >15K/mm^3, Non-Responders, N assessed 19
smiles,measurement,setting,value
"O=C(Nc1nc(-c2cc(Cl)cs2)c(N2CCN(C3CCCCC3)CC2)s1)c1cnc(N2CCC(C(=O)O)CC2)c(Cl)c1 [E5501, 1-(3-chloro-5-{[4-(4-chlorothiophen-2-yl)-5-(4-cyclohexylpiperazin-1-yl)thiazol-2-yl]carbamoyl}pyridine-2-yl)piperidine-4-carboxylic acid]","Decreased use of concomitant steroid medication by ≧50%, No",E5501 Total,11 (45.8) n (%)
same,"Decreased use of concomitant steroid medication by ≧50%, Yes",E5501 Total,13 (54.2) n (%)
same,"Permanently discontinued steroid use, No",E5501 Total,16 (66.7) n (%)
same,"Permanently discontinued steroid use, Yes",E5501 Total,8 (33.3) n (%)
same,"Decreased use of concomitant steroid medication by ≧50%, No",Nonresponders,6 (50.0) n (%)
same,"Decreased use of concomitant steroid medication by ≧50%, Yes",Nonresponders,6 (50.0) n (%)
same,"Permanently discontinued steroid use, No",Nonresponders,8 (66.7) n (%)
same,"Permanently discontinued steroid use, Yes",Nonresponders,4 (33.3) n (%)
same,"Decreased use of concomitant steroid medication by ≧50%, No",Responders,5 (41.7) n (%)
same,"Decreased use of concomitant steroid medication by ≧50%, Yes",Responders,7 (58.3) n (%)
same,"Permanently discontinued steroid use, No",Responders,8 (66.7) n (%)
same,"Permanently discontinued steroid use, Yes",Responders,4 (33.3) n (%)
same,subjects who required upward dose titration,25 responders,20%
same,subjects who required upward dose titration,28 non-responders,75%
same,durable response rate,"FAS, all subjects",52.8%
same,durable response rate,"FAS, non-responders in previous study",35.7%
same,durable response rate,"FAS, responders in previous study",72.0%
same,subjects who achieved an overall platelet response after the titration,13 subjects who required and did receive a dose titration,76.9%
same,median platelet counts maintained throughout the study,FAS,"above 50,000 /mm^3"
same,"Upward titration required and implemented, % of subjects","FAS, 501-CL-003 Nonresponders",(47.6) %
same,"Upward titration required and implemented, n of subjects","FAS, 501-CL-003 Nonresponders",10/21
same,"Upward titration required and implemented; subject achieved overall response, % of subjects","FAS, 501-CL-003 Nonresponders",(70.0) %
same,"Upward titration required and implemented; subject achieved overall response, n of subjects","FAS, 501-CL-003 Nonresponders",7/10
same,"Upward titration required, % of subjects",[1],(75.0) %
same,"Upward titration required, n of subjects",[1],21
same,"Upward titration required and implemented, % of subjects","FAS, 501-CL-003 Responders",(60.0) %
same,"Upward titration required and implemented, n of subjects","FAS, 501-CL-003 Responders",3/5
same,"Upward titration required and implemented; subject achieved overall response, % of subjects","FAS, 501-CL-003 Responders",(100.0) %
same,"Upward titration required and implemented; subject achieved overall response, n of subjects","FAS, 501-CL-003 Responders",3/3
same,"Upward titration required, % of subjects",[2],(20.0) %
same,"Upward titration required, n of subjects",[2],5
same,"Durable Platelet Response No, %","FAS, E5501 Total (N=53)",(47.2) %
same,"Durable Platelet Response Yes, %","FAS, E5501 Total (N=53)",(52.8) %
same,"Transient Platelet Response Yes, %","FAS, E5501 Total (N=53)",(22.6) %
same,"With Overall Response No, %","FAS, E5501 Total (N=53)",(24.5) %
same,"With Overall Response Yes, %","FAS, E5501 Total (N=53)",(75.5) %
same,"Transient Platelet Response No, %","FAS, E5501 Total (N=53)",(77.4) %
same,"Durable Platelet Response No, %","FAS, Non-Responders (N=28)",(64.3) %
same,"Durable Platelet Response Yes, %","FAS, Non-Responders (N=28)",(35.7) %
same,"Transient Platelet Response Yes, %","FAS, Non-Responders (N=28)",(28.6) %
same,"With Overall Response No, %","FAS, Non-Responders (N=28)",(35.7) %
same,"With Overall Response Yes, %","FAS, Non-Responders (N=28)",(64.3) %
same,"Transient Platelet Response No, %","FAS, Non-Responders (N=28)",(71.4) %
same,"Durable Platelet Response No, %","FAS, Responders (N=25)",(28.0) %
same,"Durable Platelet Response Yes, %","FAS, Responders (N=25)",(72.0) %
same,"Transient Platelet Response Yes, %","FAS, Responders (N=25)",(16.0) %
same,"With Overall Response No, %","FAS, Responders (N=25)",(12.0) %
same,"With Overall Response Yes, %","FAS, Responders (N=25)",(88.0) %
same,"Transient Platelet Response No, %","FAS, Responders (N=25)",(84.0) %
same,"Upward titration required and implemented, % of subjects","FAS, Total",(50.0) %
same,"Upward titration required and implemented, n of subjects","FAS, Total",13/26
same,"Upward titration required and implemented; subject achieved overall response, % of subjects","FAS, Total",(76.9) %
same,"Upward titration required and implemented; subject achieved overall response, n of subjects","FAS, Total",10/13
same,"Upward titration required, % of subjects","FAS, Total (N = 53)",(49.0) %
same,"Upward titration required, n of subjects","FAS, Total (N = 53)",26
same,"Durable Platelet Response, n (%) with response",[3],12 (66.7) n (%)
same,"Overall Platelet Response, n (%) with response",[3],15 (83.3) n (%)
same,"Durable Platelet Response, n (%) with response",[4],3 (50.0) n (%)
same,"Overall Platelet Response, n (%) with response",[4],4 (66.7) n (%)
same,"Durable Platelet Response, n (%) with response",[5],9 (75.0) n (%)
same,"Overall Platelet Response, n (%) with response",[5],11 (91.7) n (%)
same,"Durable Platelet Response, n (%) with response",[6],24 (63.2) n (%)
same,"Overall Platelet Response, n (%) with response",[6],33 (86.8) n (%)
same,"Durable Platelet Response, n (%) with response",[7],9 (47.4) n (%)
same,"Overall Platelet Response, n (%) with response",[7],15 (78.9) n (%)
